Experimental data published in patent US8765748B2, “Indazolyl, benzimidazolyl, benzotriazolyl substituted indolinone derivatives as kinase inhibitors useful in the treatment of cancer” (University Health Network, priority 2007, dated 2014).

What was measured:
Assay type in all cases: biochemical
[1] = target: T1, PLK2 (Homo sapiens, UniProt Q9NYY3); assay: PLK2 Inhibition Assay (Z-Lyte); conditions: for inhibition at 10 µM: 10 μM compound, read-out: PLK2 relative inhibition percentage at a dose of 10 μM
T1 construct: purchased Invitrogen PV4204
T1 sequence (Q9NYY3 whole entry): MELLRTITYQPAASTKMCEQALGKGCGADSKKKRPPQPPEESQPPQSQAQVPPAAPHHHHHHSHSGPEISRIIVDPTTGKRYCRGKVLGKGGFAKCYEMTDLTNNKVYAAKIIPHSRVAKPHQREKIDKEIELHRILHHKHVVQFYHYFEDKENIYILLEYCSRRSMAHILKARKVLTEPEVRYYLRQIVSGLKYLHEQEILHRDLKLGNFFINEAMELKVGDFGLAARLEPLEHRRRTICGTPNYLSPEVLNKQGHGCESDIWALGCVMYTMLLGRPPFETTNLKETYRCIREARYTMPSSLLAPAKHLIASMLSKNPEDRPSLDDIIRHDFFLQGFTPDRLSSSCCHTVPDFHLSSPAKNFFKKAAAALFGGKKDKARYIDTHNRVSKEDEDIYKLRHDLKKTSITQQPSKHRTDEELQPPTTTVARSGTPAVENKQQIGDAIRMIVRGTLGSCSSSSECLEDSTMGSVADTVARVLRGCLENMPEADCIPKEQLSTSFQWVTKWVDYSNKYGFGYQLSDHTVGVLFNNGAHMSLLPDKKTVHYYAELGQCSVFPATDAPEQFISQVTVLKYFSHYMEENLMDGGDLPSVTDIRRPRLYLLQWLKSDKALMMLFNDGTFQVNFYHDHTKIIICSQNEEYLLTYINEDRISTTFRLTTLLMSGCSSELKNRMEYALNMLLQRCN
Protocol: (§1) PLK2 inhibition was determined using the Z-Lyte assay kit from Invitrogen (cat #PV3802). The assay was performed using the recommended manufacturer's instructions with 60 μM ATP and 133 nM PLK2 (Invitrogen cat #PV4204). The % inhibition values were determined according to the manufacturer's directions and IC50 values were obtained using a non-linear 4 point logistic curve fit (XLfit4, IDBS)

[2] = target: T2, human PLK4 (Homo sapiens, UniProt O00444); assay: PLK4 Inhibition Assay (indirect ELISA); conditions: 15 μM ATP, 4 nM GST-PLK4; read-out: PLK4 IC50 Ranges
T2 construct: amino terminal GST fusion of residues 1-391 of human PLK4; made in house; host or cells: E. coli
T2 sequence (O00444 1-391): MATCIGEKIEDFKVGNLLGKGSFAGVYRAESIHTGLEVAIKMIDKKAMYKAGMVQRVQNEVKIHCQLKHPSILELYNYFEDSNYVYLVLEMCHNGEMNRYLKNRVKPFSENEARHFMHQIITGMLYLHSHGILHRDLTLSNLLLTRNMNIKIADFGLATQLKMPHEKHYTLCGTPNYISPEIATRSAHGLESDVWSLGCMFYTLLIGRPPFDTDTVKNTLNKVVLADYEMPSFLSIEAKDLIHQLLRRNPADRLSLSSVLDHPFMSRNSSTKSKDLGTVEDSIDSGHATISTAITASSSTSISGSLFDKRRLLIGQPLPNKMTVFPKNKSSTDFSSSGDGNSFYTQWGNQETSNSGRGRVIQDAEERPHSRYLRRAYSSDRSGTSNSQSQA
How it was run: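 IC50 values, from 4-point logistic fitting, reflect remaining activity measured by indirect ELISA. Enzyme was GST-PLK4 treated with lambda phosphatase and given a 15-minute pre-incubation with compound before ATP start.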

[3] = target: T3, Aurora A (Homo sapiens, UniProt O14965); assay: Aurora A Inhibition Assay (Z-Lyte); conditions: for IC50: 20 μM ATP, 12 nM Aurora A, read-out: Aurora A IC50 Ranges; for inhibition at 10 µM: 10 μM compound, read-out: Aurora A relative inhibition percentage at a dose of 10 μM
T3 construct: purchased Invitrogen PV3612
T3 sequence (O14965 1-403): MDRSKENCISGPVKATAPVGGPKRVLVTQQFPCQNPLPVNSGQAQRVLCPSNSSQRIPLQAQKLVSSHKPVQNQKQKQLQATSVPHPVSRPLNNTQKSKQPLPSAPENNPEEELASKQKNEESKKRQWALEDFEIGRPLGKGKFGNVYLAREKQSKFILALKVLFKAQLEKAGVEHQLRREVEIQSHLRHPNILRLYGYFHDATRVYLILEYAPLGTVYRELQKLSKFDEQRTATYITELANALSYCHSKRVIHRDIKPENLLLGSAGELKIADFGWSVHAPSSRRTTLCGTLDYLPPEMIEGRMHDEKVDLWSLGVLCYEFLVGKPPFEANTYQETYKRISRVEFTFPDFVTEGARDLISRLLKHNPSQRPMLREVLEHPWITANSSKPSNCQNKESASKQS
Protocol: as §1, with “Aurora A” for “PLK2”, “Invitrogen.” for “Invitrogen (cat #PV3802).”, “20” for “60”, “12” for “133”, “#PV3612).” for “#PV4204).”

[4] = target: T4, Aurora B (Homo sapiens, UniProt Q96GD4); assay: Aurora B Inhibition Assay (Z-Lyte); conditions: 128 μM ATP, 28 nM Aurora B; read-out: Aurora B IC50 Ranges
T4 construct: purchased Invitrogen PV3970
T4 sequence (Q96GD4 whole entry): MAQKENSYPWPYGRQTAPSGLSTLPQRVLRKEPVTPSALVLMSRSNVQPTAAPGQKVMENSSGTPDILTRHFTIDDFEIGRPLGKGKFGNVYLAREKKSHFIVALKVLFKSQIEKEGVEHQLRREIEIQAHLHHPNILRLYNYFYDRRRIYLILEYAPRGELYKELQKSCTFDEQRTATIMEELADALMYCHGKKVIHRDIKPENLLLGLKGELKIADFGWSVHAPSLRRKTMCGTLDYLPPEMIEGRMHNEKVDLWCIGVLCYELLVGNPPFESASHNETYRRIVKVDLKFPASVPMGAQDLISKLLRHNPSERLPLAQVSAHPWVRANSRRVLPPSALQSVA
Protocol: as §1, with “Aurora B” for “PLK2”, “Invitrogen.” for “Invitrogen (cat #PV3802).”, “128” for “60”, “28” for “133”, “#PV3970).” for “#PV4204).”

[5] = target: T5, PLK1 (Homo sapiens, UniProt P53350); assay: PLK1 Inhibition Assay (Z-Lyte); conditions: for inhibition at 10 µM: 10 μM compound, read-out: PLK1 relative inhibition percentage at a dose of 10 μM
T5 construct: purchased Invitrogen PV3501
T5 sequence (P53350 whole entry): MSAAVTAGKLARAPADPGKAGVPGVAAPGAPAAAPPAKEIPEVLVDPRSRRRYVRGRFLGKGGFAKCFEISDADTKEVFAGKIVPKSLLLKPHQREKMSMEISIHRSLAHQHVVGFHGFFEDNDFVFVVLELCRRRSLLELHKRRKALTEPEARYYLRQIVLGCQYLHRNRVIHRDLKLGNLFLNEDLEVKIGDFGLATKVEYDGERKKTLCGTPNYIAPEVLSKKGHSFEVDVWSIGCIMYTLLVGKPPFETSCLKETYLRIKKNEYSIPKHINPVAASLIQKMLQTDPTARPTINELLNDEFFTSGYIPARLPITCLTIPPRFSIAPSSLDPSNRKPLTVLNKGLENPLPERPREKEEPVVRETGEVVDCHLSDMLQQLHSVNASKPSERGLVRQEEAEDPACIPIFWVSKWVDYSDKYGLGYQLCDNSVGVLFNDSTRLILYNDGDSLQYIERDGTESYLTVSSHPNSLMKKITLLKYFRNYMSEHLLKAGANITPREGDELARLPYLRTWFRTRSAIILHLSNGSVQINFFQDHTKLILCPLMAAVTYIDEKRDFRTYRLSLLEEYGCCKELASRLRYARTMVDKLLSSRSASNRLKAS
Protocol: PLK1 inhibition was determined using the Z-Lyte assay kit from Invitrogen (cat #PV3802). […] The % inhibition values were determined according to the manufacturer's directions and IC50 values were obtained using a non-linear 4 point logistic curve fit (XLfit4, IDBS)

SMILES | IC50 ([1]; 60 μM ATP, 133 nM PLK2, read-out: PLK2 IC50 Ranges) [µM] | IC50 [2] [µM] | IC50 [3] [µM] | IC50 [4] [µM] | IC50 ([5]; 25 μM ATP, 8 nM PLK1, read-out: PLK1 IC50 Ranges) [µM] | inhibition at 10 µM [1] [%] | inhibition at 10 µM [3] [%] | inhibition at 10 µM [5] [%]
O=C1Nc2c(cccc2C(F)(F)F)C1=Cc1ccc2cn[nH]c2c1 (mixture of isomers) [Example A47, (E and Z)-3-((1H-indazol-6-yl)methylene)-7-(trifluoromethyl)indolin-2-one] | > 50 | > 50 | > 50 | 5 to 50 | > 50 | – | – | –
O=C1Nc2ccccc2C1=Cc1ccc2c(CCc3ccncc3)n[nH]c2c1 (mixture of isomers) [Example A64, (E and Z)-3-((3-(2-(pyridin-4-yl)ethyl)-1H-indazol-6-yl)methylene)-indolin-2-one] | – | < 5 | – | < 5 | – | < 50 | > 50 | < 50
Cc1ccc2c(c1)C(=Cc1ccc3cn[nH]c3c1)C(=O)N2 (mixture of isomers) [Example A81, (E and Z)-3-((1H-indazol-6-yl)methylene)-5-methylindolin-2-one] | – | < 5 | < 5 | < 5 | – | < 50 | – | < 50
COc1ccc2c(c1)C(=Cc1ccc3cn[nH]c3c1)C(=O)N2 (mixture of isomers) [Example A83, (E and Z)-3-((1H-indazol-6-yl)methylene)-5-methoxyindolin-2-one] | – | < 5 | – | < 5 | – | > 50 | > 50 | > 50
COc1ccc2c(c1)C(=Cc1ccc3c(/C=C/c4ccccn4)n[nH]c3c1)C(=O)N2 (mixture of isomers) [Example A87, (E and Z)-5-methoxy-3-((3-((E)-2-(pyridin-2-yl)vinyl)-1H-indazol-6-yl)methylene)indolin-2-one] | – | < 5 | – | < 5 | – | < 50 | > 50 | < 50
O=C1Nc2ccccc2C1=Cc1ccc2c(-c3ccc[nH]3)n[nH]c2c1 (mixture of isomers) [Example A89, (E and Z)-3-((3-(1H-pyrrol-2-yl)-1H-indazol-6-yl)methylene)indolin-2-one] | – | < 5 | < 5 | < 5 | – | < 50 | – | < 50
O=C1Nc2ccccc2C1=Cc1ccc2c(-c3cccnc3)n[nH]c2c1 (mixture of isomers) [Example A93, (E and Z)-3-((3-(pyridin-3-yl)-1H-indazol-6-yl)methylene)indolin-2-one] | – | < 5 | < 5 | < 5 | – | < 50 | – | < 50
O=C1Nc2ccc(Cl)cc2C1=Cc1ccc2c(-c3cccnc3)n[nH]c2c1 (mixture of isomers) [Example A94, (E and Z)-5-chloro-3-((3-(pyridin-3-yl)-1H-indazol-6-yl)methylene)-indolin-2-one] | – | < 5 | > 50 | < 5 | – | < 50 | – | < 50
O=C1Nc2ccccc2C1=Cc1ccc2c(-c3cncnc3)n[nH]c2c1 (mixture of isomers) [Example A100, (E and Z)-3-((3-(pyrimidin-5-yl)-1H-indazol-6-yl)methylene)-indolin-2-one] | – | < 5 | – | < 5 | – | < 50 | > 50 | < 50
O=C1Nc2ccccc2C1=Cc1ccc2c(/C=C/c3cnccn3)n[nH]c2c1 (mixture of isomers) [Example A104, (E and Z)-3-((3-((E)-2-(pyrazin-2-yl)vinyl)-1H-indazol-6-yl)methylene)-indolin-2-one] | – | < 5 | < 5 | < 5 | – | < 50 | – | < 50
CN1CCN(C(=O)c2cccc(/C=C/c3n[nH]c4cc(C=C5C(=O)Nc6ccccc65)ccc34)c2)CC1 (mixture of isomers) [Example A107, (E and Z)-3-((3-((E)-3-(4-methylpiperazine-1-carbonyl)styryl)-1H-indazol-6-yl)methylene)indolin-2-one 2,2,2-trifluoroacetate] | – | < 5 | < 5 | < 5 | – | < 50 | – | > 50
CCOC(=O)/C=C/c1n[nH]c2cc(C=C3C(=O)Nc4ncccc43)ccc12 (mixture of isomers) [Example A110, (E and Z)-ethyl 3-(6-((E)-(2-oxo-1H-pyrrolo[2,3-b]pyridin-3(2H-ylidene)methyl)-1H-indazol-3-yl)acrylate] | – | < 5 | < 5 | < 5 | – | < 50 | – | < 50
O=C1Nc2ncccc2C1=Cc1ccc2c(/C=C/c3cccnc3)n[nH]c2c1 (mixture of isomers) [Example A114, (E and Z)-3-((3-((E)-2-(pyridin-3-yl)vinyl)-1H-indazol-6-yl)methylene)-1H-pyrrolo[2,3-b]pyridin-2(3H)-one] | – | < 5 | < 5 | < 5 | – | < 50 | – | < 50
COc1ccc2c(c1)C(=Cc1ccc3c(/C=C/c4cccnc4)n[nH]c3c1)C(=O)N2 (mixture of isomers) [Example A115, (E and Z)-5-methoxy-3-((3-((E)-2-(pyridin-3-yl)vinyl)-1H-indazol-6-yl)methylene)indolin-2-one] | – | < 5 | < 5 | < 5 | – | < 50 | – | < 50
O=C1Nc2ccccc2/C1=C\c1cc(Br)c2cn[nH]c2c1 [Example A53a, (E)-3-((4-bromo-1H-indazol-6-yl)methylene)indolin-2-one] | – | < 5 | – | < 5 | – | > 50 | – | < 50
COCn1nc(/C=C/c2ccncc2)c2ccc(/C=C3/C(=O)Nc4ccc(Br)cc43)cc21 [Example A63, (E)-5-bromo-3-((1-(methoxymethyl)-3-((E)-2-(pyridin-4-yl)vinyl)-1H-indazol-6-yl)methylene)indolin-2-one] | – | < 5 | – | – | – | < 50 | – | < 50
COc1ccc2c(c1)/C(=C\c1ccc3c(-c4ccc(N(C)C)nc4)n[nH]c3c1)C(=O)N2 [Example A116, (E)-3-((3-(6-(dimethylamino)pyridin-3-yl)-1H-indazol-6-yl)methyl-ene)-5-methoxyindolin-2-one] | – | – | – | – | – | < 50 | – | < 50
COc1ccc2c(c1)/C(=C\c1ccc3c(/C=C/c4ccc(C(=O)O)cc4)n[nH]c3c1)C(=O)N2 [Example A145, 4-((E)-2-(6-((E)-(5-methoxy-2-oxoindolin-3-ylidene)methyl)-1H-indazol-3-yl)vinyl)benzoic acid] | – | < 5 | < 5 | < 5 | – | – | – | –
COc1ccc2c(c1)/C(=C\c1ccc3c(-c4cnc(N5CCN(C)CC5)nc4)n[nH]c3c1)C(=O)N2 [Example A151, (E)-5-methoxy-3-((3-(2-(4-methylpiperazin-1-yl)pyrimidin-5-yl)-1H-indazol-6-yl)methylene)indolin-2-one] | – | < 5 | 5 to 50 | < 5 | – | – | – | –
